Tests used:
Assay type in all cases: in vivo
Tetranychus urticae = assay: Activity against Tetranychus urticae; conditions: 144 h, 400 ppm spray on young bean plants, mixed population, 6 days at 25° C, read-out: percentage reduction in population (% activity)
Experimental: Young bean plants are populated with a mixed population of Tetranychus urticae and, after 1 day, sprayed with a spray mixture prepared with an aqueous emulsion and comprising 400 ppm of the active ingredient. The plants are subsequently incubated for 6 days at 25° C and then evaluated. The percentage reduction in population (% activity) is determined by comparing the number of dead eggs, larvae and adults on the treated plants with those on the untreated ones.

[1] = tested on: Heliothis virescens caterpillars; assay: Activity against Heliothis virescens caterpillars; conditions: 144 h, 400 ppm spray on young soybean plants, first larval stage, evaluated after 6 days, read-out: percentage reduction in population or in feeding damage (% activity)
Experimental: Young soybean plants are sprayed with a spray mixture prepared with an aqueous emulsion and comprising 400 ppm of the active ingredient. After the spray coating has dried on, the soybean plants are populated with 10 Heliothis virescens in the first larval stage and placed into a plastic container. The test is evaluated after 6 days. The percentage reduction in population, or the percentage reduction in feeding damage (% activity), is determined by comparing the number of dead caterpillars and the feeding damage on the treated plants with those on the untreated plants.

Ctenocephalides felis = assay: Activity against Ctenocephalides felis; conditions: 504 h, 100 ppm in flea larvae nutrient medium, flea eggs, checked after 21 days
Experimental: 20 to 25 flea eggs are placed into a horizontally positioned 50 ml tissue culture flask into which 15 g of flea larvae nutrient medium comprising 100 ppm of the active ingredient to be tested have previously been introduced. The test flasks are incubated in an incubator at 26° to 27° C. and an atmospheric humidity of 60-70%. After 21 days, the flasks are checked for the presence of adult fleas, unhatched pupae and larvae.

adult Anthonomus grandis = assay: Activity against adult Anthonomus grandis; conditions: 72 h, 400 ppm spray on young cotton plants, adults, evaluated after 3 days, read-out: percentage reduction in population or in feeding damage (% activity)
Nilaparvata lugens [2] = assay: Systemic activity against Nilaparvata lugens; conditions: 144 h, pots with rice plants in 400 ppm aqueous emulsion solution, larvae in stages 2 and 3, evaluated 6 days later, read-out: percentage reduction in population (% activity)
Experimental: Pots containing rice plants are placed into an aqueous emulsion solution comprising 400 ppm of the active ingredient. The rice plants are subsequently populated with larvae in stages 2 and 3. The test is evaluated 6 days later. The percentage reduction in population (% activity) is determined by comparing the numbers of plant hoppers on the treated plants with those on the untreated plants.

Aphis craccivora = assay: Activity against Aphis craccivora; conditions: 400 ppm spray on pea seedlings, 20° C., evaluated after 3 and 6 days, read-out: percentage reduction in population (% activity)
Experimental: Pea seedlings are infected with Aphis craccivora, subsequently sprayed with a spray mixture comprising 400 ppm of the active ingredient, and incubated at 20° C. The test is evaluated after 3 and 6 days. The percentage reduction in population (% activity) is determined by comparing the number of dead aphids on the treated plants with those on the untreated plants.

Heliothis virescens = assay: Ovicidal/larvicidal activity on Heliothis virescens; conditions: 192 h, 400 ppm spray on eggs deposited on cotton, evaluated after 8 days, read-out: % reduction in population (hatching percentage of eggs and survival rate of caterpillars)
Experimental: Heliothis eggs which have been deposited on cotton are sprayed with a spray mixture prepared with an aqueous emulsion and comprising 400 ppm of the active ingredient. After 8 days, the hatching percentage of the eggs and the survival rate of the caterpillars are evaluated by comparing them with untreated control batches (% reduction in population).

Nephotettix cincticeps [3] = assay: Activity against Nephotettix cincticeps (spray on rice plants); conditions: 504 h, 400 ppm spray on rice plants, larvae in stages 2 and 3, evaluated 21 days later, read-out: percentage reduction in population (% activity)
Experimental: Rice plants are treated with a spray mixture prepared with an aqueous emulsion and comprising 400 ppm of the active ingredient. After the spray coating has dried on, the rice plants are populated with leaf hopper larvae in stages 2 and 3. The test is evaluated 21 days later. The percentage reduction in population (% activity) is determined by comparing the number of surviving leaf hoppers on the treated plants with those on the untreated plants.

Nilaparvata lugens [4] = assay: Activity against Nilaparvata lugens (spray on rice plants); conditions: 504 h, 400 ppm spray on rice plants, larvae in stages 2 and 3, evaluated after 21 days, read-out: percentage reduction in population (% activity)
Experimental: Rice plants are treated with a spray mixture prepared with an aqueous emulsion and comprising 400 ppm of the active ingredient. After the spray coating has dried on, the rice plants are populated with plant hopper larvae in stages 2 and 3. The test is evaluated after 21 days. The percentage reduction in population (% activity) is determined by comparing the number of surviving plant hoppers on the treated plants with the number of plant hoppers on the untreated plants. […] An activity of over 80% is shown, in particular, by compound Nos. 1.01, 2.01 to 2.03, 2.07, 2.08, 2.10 to 2.16, 2.20, 2.22, 2.23, 2.26, 3.01, 4.01 to 4.06, 4.20, 5.01 to 5.06, 5.08, 5.10 to 5.12, 5.15, 5.16 and 5.20 to 5.25.

Nephotettix cincticeps [5] = assay: Systemic activity against Nephotettix cincticeps; conditions: 144 h, pots with rice plants in 400 ppm aqueous emulsion solution, larvae in stages 2 and 3, evaluated after 6 days, read-out: percentage reduction in population (% activity)
Experimental: Pots containing rice plants are placed into an aqueous emulsion solution comprising 400 ppm of the active ingredient. The rice plants are subsequently populated with larvae in stages 2 and 3. The test is evaluated after 6 days. The percentage reduction in population (% activity) is determined by comparing the number of leaf hoppers on the treated plants with those on the untreated plants.

O=C(CCCCCC=C(F)F)OCCOc1ccc(Oc2ccccc2)cc1 [Compound 3.01]
> 80%: activity at 400 ppm (Tetranychus urticae) | activity at 400 ppm [1] | pest or weed control at 100 ppm (Ctenocephalides felis) | activity at 400 ppm (adult Anthonomus grandis) | activity at 400 ppm (Nilaparvata lugens [2]) | activity at 400 ppm (Aphis craccivora) | pest or weed control at 400 ppm (Heliothis virescens) | activity at 400 ppm (Nephotettix cincticeps [3]) | activity at 400 ppm (Nilaparvata lugens [4]) | activity at 400 ppm (Nephotettix cincticeps [5])

O=C(CC=C(F)F)OCCOc1ccc(Oc2ccccc2)cc1 [Compound 1.01, 2-(4-phenoxyphenoxy)ethyl-4,4-difluorobut-3-enoate]
> 80%: activity at 400 ppm (Tetranychus urticae) | activity at 400 ppm [1] | pest or weed control at 100 ppm (Ctenocephalides felis) | activity at 400 ppm (adult Anthonomus grandis) | activity at 400 ppm (Nilaparvata lugens [2]) | activity at 400 ppm (Aphis craccivora) | pest or weed control at 400 ppm (Heliothis virescens) | activity at 400 ppm (Nephotettix cincticeps [3]) | activity at 400 ppm (Nilaparvata lugens [4]) | activity at 400 ppm (Nephotettix cincticeps [5])

Source: patent US5481013A, “Carboxylic acid derivatives” (Ciba-Geigy Corporation, priority 1992, dated 1996)
